# Test results: patent US9174980B2, “Heterocyclic compounds as inhibitors of leukotriene production” (Boehringer Ingelheim International GmbH, priority 2012, dated 2015)
# Where two headings read alike, the source gives them in different places.
# Assays:
# [1] = tested on: synthesis of LTB4 in human whole blood; test: Human whole blood assay (calcimycin-stimulated LTB4 synthesis); format: cell-based; settings: read-out: Human Whole Blood LTB4 Assay for FLAP (IC50 nM)
# Outline: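 Steps: compound plus heparinized human whole blood, 15 min at 37° C; add calcimycin to 20 μM final; incubate another 30 min at 37° C; centrifuge at low speed and collect plasma; measure LTB4 with a homogeneous time-resolved fluorescence immunoassay.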
# [2] = target: T1, recombinant human FLAP protein (Homo sapiens, UniProt P20292); test: FLAP binding assay (Scintillation Proximity Assay, displacement of [125I]L-691,831); settings: read-out: Human FLAP SPA Binding (IC50 nM)
# T1 construct: made in house; host or cells: Sf9 insect cells (membrane fraction, 100,000 x g pellet)
# T1 sequence (P20292 1-161): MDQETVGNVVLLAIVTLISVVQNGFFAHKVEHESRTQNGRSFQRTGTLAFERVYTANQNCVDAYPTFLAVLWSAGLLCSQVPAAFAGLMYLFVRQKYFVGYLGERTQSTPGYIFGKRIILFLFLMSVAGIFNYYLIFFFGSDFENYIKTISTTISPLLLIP
# Outline: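 Membranes from sf9 cells expressing recombinant human FLAP (5 μg/well) on WGA SPA beads were incubated with compound and 0.08 nM [125I]L-691,831 in Tris pH 7.5 binding buffer, shaken 2 h. Displacement read by scintillation proximity; non-specific binding set with 10 μM unlabelled L-691,831.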
Structure (SMILES),IC50 ([1]; Homo sapiens) [nM],IC50 [2] [nM],IC50 [1] [nM]
"COc1nccc2c(C3(c4ccc(-c5cnc(N)nc5)cc4)CCC3)c[nH]c12 [Example 145, 5-{4-[1-(7-methoxy-1H-pyrrolo[2,3-b]pyridin-3-yl)cyclobutyl]phenyl}pyrimidin-2-amine]",–,1.7,150
CN1CCN(C(=O)c2cccc3c(C4(c5ccc(-c6cnc(N)nc6)cc5)CCC4)c[nH]c23)CC1 [Example 146],310,1.7,–
"Nc1ncc(-c2ccc(C3(c4cn(CC(=O)N5CCOCC5)c5ccccc45)CCC3)cc2)cn1 [Example 148, 2-(3-{1-[4-(2-aminopyrimidin-5-yl)phenyl]cyclobutyl}-1H-indol-1-yl)-1-(morpholin-4-yl)ethanone]",3100,9,–
"Nc1ncc(-c2ccc(C3(c4c[nH]c5c(C(=O)N6CCC6)cccc45)CCC3)cc2)cn1 [Example 149, (3-{1-[4-(2-aminopyrimidin-5-yl)phenyl]cyclobutyl}-1H-indol-7-yl)(azetidin-1-yl)methanone]",110,2,–
"Nc1ncc(-c2ccc(C3(c4c[nH]c5c(C(=O)O)cccc45)CCC3)cc2)cn1 [Example 150, 3-{1-[4-(2-aminopyrimidin-5-yl)phenyl]cyclobutyl}-1H-indole-7-carboxylic acid]",> 5000,1.5,–
"Cc1cc(C2(c3c[nH]c4ccccc34)CCC2)ccc1-c1cnc(N)nc1 [Example 151, 5-{4-[1-(1H-indol-3-yl)cyclobutyl]-2-methylphenyl}pyrimidin-2-amine]",890,7,–
"Cc1nccc2c(C3(c4ccc(-c5cnc(N)nc5)cc4)CCC3)c[nH]c12 [Example 152, 5-{4-[1-(7-methyl-1H-pyrrolo[2,3-c]pyridin-3-yl)cyclobutyl]phenyl}pyrimidin-2-amine]",55,1.7,–
"Cn1cc(C(c2ccc(-c3cnc(N)nc3)cc2)C(C)(C)C)c2ccccc21 (centres unmarked) [Example 154, 5-{4-[2,2-dimethyl-1-(1-methyl-1H-indol-3-yl)propyl]phenyl}pyrimidin-2-amine]",> 5000,22,–
"Nc1ncc(-c2ccc(C3(c4c(-c5ccc(F)cc5)[nH]c5ccccc45)CCC3)cc2)cn1 [Example 163, 5-(4-{1-[2-(4-fluorophenyl)-1H-indol-3-yl]cyclobutyl}phenyl)pyrimidin-2-amine]",590,5.7,–
"COC(=O)c1[nH]c2ccccc2c1C1(c2ccc(-c3cnc(N)nc3)cc2)CCC1 [Example 165, methyl 3-{1-[4-(2-aminopyrimidin-5-yl)phenyl]cyclobutyl}-1H-indole-2-carboxylate]",160,6.1,–
"Cn1cc(-c2coc(C(C)(c3ccc(-c4cnc(N)nc4)cc3)C3CC3)n2)cn1 (centres unmarked) [Example 171, 5-(4-{1-cyclopropyl-1-[4-(1-methyl-1H-pyrazol-4-yl)-1,3-oxazol-2-yl]ethyl}phenyl)pyrimidin-2-amine]",140,7.4,–
"CN(C)CCn1cc(-c2cnc(C(C)(c3ccc(-c4cnc(N)nc4)cc3)C3CC3)s2)cn1 (centres unmarked) [Example 172, 5-{4-[1-cyclopropyl-1-(5-{1-[2-(dimethylamino)ethyl]-1H-pyrazol-4-yl}-1,3-thiazol-2-yl)ethyl]phenyl}pyrimidin-2-amine]",73,8.2,–
"COC(=O)c1[nH]cc(Br)c1C1(c2ccc(-c3cnc(N)nc3)cc2)CCC1 [Example 174, methyl 3-{1-[4-(2-aminopyrimidin-5-yl)phenyl]cyclobutyl}-4-bromo-1H-pyrrole-2-carboxylate]",650,17,–
"CC(c1ccc(-c2cnc(N)nc2)cc1)(c1cc(O)n(-c2ccccc2)n1)C1CC1 (centres unmarked) [Example 175, 3-{1-[4-(2-aminopyrimidin-5-yl)phenyl]-1-cyclopropylethyl}-1-phenyl-1H-pyrazol-5-ol]",1100,10,–
"COC(=O)c1cc(-c2cnn(C)c2)c(C2(c3ccc(-c4cnc(N)nc4)cc3)CCC2)[nH]1 [Example 176, methyl 5-{1-[4-(2-aminopyrimidin-5-yl)phenyl]cyclobutyl}-4-(1-methyl-1H-pyrazol-4-yl)-1H-pyrrole-2-carboxylate]",2900,150,–

# Continued, values first:
IC50 ([1]; Homo sapiens) [nM],IC50 [2] [nM],IC50 [1] [nM],Structure (SMILES)
2500,4,–,"COc1ccc(-c2nnc(C3(c4ccc(-c5cnc(N)nc5)cc4)CCC3)[nH]2)cn1 [Example 144, 5-(4-{1-[5-(6-methoxypyridin-3-yl)-4H-1,2,4-triazol-3-yl]cyclobutyl}phenyl)pyrimidin-2-amine]"
> 5000,7.9,–,NC(=O)Cn1cc(C2(c3ccc(-c4cnc(N)nc4)cc3)CCC2)c2ccccc21 [Example 147]
1100,3.1,–,"COc1ncccc1-c1nnc(C2(c3ccc(-c4cnc(N)nc4)cc3)CCC2)[nH]1 [Example 153, 5-(4-{1-[5-(2-methoxypyridin-3-yl)-4H-1,2,4-triazol-3-yl]cyclobutyl}phenyl)pyrimidin-2-amine]"
370,2.5,–,Nc1ncc(-c2ccc(C3(c4c[nH]c5c(=O)[nH]ccc45)CCC3)cc2)cn1 [Example 155]
> 5000,260,–,"Cn1cc(C(c2ccc(-c3cnc(N)nc3)cn2)C(C)(C)C)c2ccccc21 (centres unmarked) [Example 156, 5-{6-[2,2-dimethyl-1-(1-methyl-1H-indol-3-yl)propyl]pyridin-3-yl}pyrimidin-2-amine]"
2600,16,–,"Cc1ccc(-c2csc(C3(c4ccc(-c5cnc(N)nc5)cc4)CCC3)n2)cn1 [Example 157, 5-(4-{1-[4-(6-methylpyridin-3-yl)-1,3-thiazol-2-yl]cyclobutyl}phenyl)pyrimidin-2-amine]"
430,5.2,–,"Cc1ccc(-c2cc(C3(c4ccc(-c5cnc(N)nc5)cc4)CCC3)no2)cn1 [Example 158, 5-(4-{1-[5-(6-methylpyridin-3-yl)-1,2-oxazol-3-yl]cyclobutyl}phenyl)pyrimidin-2-amine]"
43,1.9,–,COCCNC(=O)c1cccc2c(C3(c4ccc(-c5cnc(N)nc5)cc4)CCC3)c[nH]c12 [Example 159]
1400,8.4,–,"Cc1ccc(-c2cc(C(C)(c3ccc(-c4cnc(N)nc4)nc3)C(C)C)[nH]n2)cn1 (centres unmarked) [Example 160, 5-(5-{3-methyl-2-[5-(6-methylpyridin-3-yl)-1H-pyrazol-3-yl]butan-2-yl}pyridin-2-yl)pyrimidin-2-amine]"
160,8.2,–,"CC(C)C(C)(c1ccc(-c2cnc(N)nc2)nc1)c1cc(-c2cnn(C)c2)on1 (centres unmarked) [Example 161, 5-(5-{3-methyl-2-[5-(1-methyl-1H-pyrazol-4-yl)-1,2-oxazol-3-yl]butan-2-yl}pyridin-2-yl)pyrimidin-2-amine]"
1500,210,–,"COC(=O)c1c[nH]cc1C1(c2ccc(-c3cnc(N)nc3)cc2)CCC1 [Example 162, methyl 4-[1-[4-(2-aminopyrimidin-5-yl)phenyl]cyclobutyl]-1H-pyrrole-3-carboxylate]"
93,3.7,–,"Cn1cc(-c2coc(C3(c4ccc(-c5cnc(N)nc5)cc4)CCC3)n2)cn1 [Example 164, 5-(4-{1-[4-(1-methyl-1H-pyrazol-4-yl)-1,3-oxazol-2-yl]cyclobutyl}phenyl)pyrimidin-2-amine]"
3600,72,–,"COC(=O)c1cc(-c2ccc(F)cc2)c(C2(c3ccc(-c4cnc(N)nc4)cc3)CCC2)[nH]1 [Example 166, methyl 5-{1-[4-(2-aminopyrimidin-5-yl)phenyl]cyclobutyl}-4-(4-fluorophenyl)-1H-pyrrole-2-carboxylate]"
3200,59,–,"COC(=O)c1ccc(C2(c3ccc(-c4cnc(N)nc4)cc3)CCC2)[nH]1 [Example 167, methyl 5-[1-[4-(2-aminopyrimidin-5-yl)phenyl]cyclobutyl]-1H-pyrrole-2-carboxylate]"
390,87,–,"CC(C)C(C)(c1ccc(-c2cnc(N)nc2)nc1)c1nc(-c2cnn(C)c2)co1 (centres unmarked) [Example 168, 5-(5-{3-methyl-2-[4-(1-methyl-1H-pyrazol-4-yl)-1,3-oxazol-2-yl]butan-2-yl}pyridin-2-yl)pyrimidin-2-amine]"
2000,110,–,"Nc1ncc(-c2ccc(C3(c4cccn4S(=O)(=O)c4ccccc4)CCC3)cc2)cn1 [Example 169, 5-(4-{1-[1-(phenylsulfonyl)-1H-pyrrol-2-yl]cyclobutyl}phenyl)pyrimidin-2-amine]"
120,10,–,"CN(C)C(=O)Cn1cc(-c2cnc(C(C)(c3ccc(-c4cnc(N)nc4)cc3)C3CC3)s2)cn1 (centres unmarked) [Example 170, 2-[4-[2-[1-[4-(2-aminopyrimidin-5-yl)phenyl]-1-cyclopropyl-ethyl]thiazol-5-yl]pyrazol-1-yl]-N,N-dimethyl-acetamide]"
89,7.7,–,"Cn1cc(-c2cnc(C(C)(c3ccc(-c4cnc(N)nc4)cc3)C3CC3)s2)cn1 (centres unmarked) [Example 173, 5-(4-{1-cyclopropyl-1-[5-(1-methyl-1H-pyrazol-4-yl)-1,3-thiazol-2-yl]ethyl}phenyl)pyrimidin-2-amine]"
1800,42,–,"COC(=O)c1cc(Br)c(C2(c3ccc(-c4cnc(N)nc4)cc3)CCC2)n1C [Example 177, methyl 5-{1-[4-(2-aminopyrimidin-5-yl)phenyl]cyclobutyl}-4-bromo-1-methyl-1H-pyrrole-2-carboxylate]"
